Several values for one entry are separate records, joined by “and”; a condition that tells them apart may be missing. Identical values can stand only once.
Experiments:
Assay type in all cases: in vivo, mouse
HCC1569 xenografts = assay: Cell line-derived xenograft, tumour growth; conditions: Gem 20mg/kg QWx4 IP
Protocol: (§1) HCC1569, OVCAR3 and SUM149PT cells were implanted at 5 × 10^6 cells per mouse into the right flanks of female CB17-SCID, SCID-beige and NOD-SCID mice respectively (5–7 weeks old; Charles River), in 1:1 Matrigel:medium (Matrigel Corning, cat. no. CB35248).
(§2) Gemcitabine was administered once weekly intraperitoneally in saline. Animals were monitored for tumour volume, clinical signs and body weight three times per week. Tumour volume was measured using a digital calliper and calculated using the formula 0.52 × L × W^2, where L is length and W is width. Response to treatment was evaluated for tumour growth inhibition (% TGI). […] TV is tumour volume and subscripts indicate treatment group and time of sampling. According to NIACC and IACUC approved animal protocols, mice were euthanized as soon as their tumour volume exceeded 2,000 mm^3. Change in body weight (BW) was calculated using the formula: %BW change = (BWlast − BWday0/BWday0) × 100. BW change was calculated based on individual body weight changes relative to day 0. Statistical significance relative to vehicle control or other test groups was established by one-way ANOVA followed by Fisher’s least significant difference test for multiple groups and unpaired t-test for two group comparisons (GraphPad Prism v9.0). Investigators were not blinded during data collection and analysis.

OVCAR3 xenografts = assay: Cell line-derived xenograft, tumour growth; conditions: Gem 20mg/kg QWx4 IP
Protocol: as §1, §2

[1] = Body weight change of tumour-bearing mice; conditions: Gem 20mg/kg QWx4 IP, individual mice
Protocol: as §2

Nc1ccn([C@@H]2O[C@H](CO)[C@@H](O)C2(F)F)c(=O)n1 [Gem]
Tumor growth of HCC1569 xenografts (HCC1569 xenografts; time 0, individual animals): 105.749 and 117.204 and 102.711 and 148.478 and 128.24 and 85.4122 and 124.681
HCC1569 tumor volume (mm3) (HCC1569 xenografts; time 0, individual mice): 105.749 mm3 and 117.204 mm3 and 102.711 mm3 and 148.478 mm3 and 128.24 mm3 and 85.4122 mm3 and 124.681 mm3
Tumor growth of HCC1569 xenografts (HCC1569 xenografts; time 3, individual animals): 151.536 and 159.659 and 162.777 and 151.443 and 177.63 and 154.669 and 192.079
HCC1569 tumor volume (mm3) (HCC1569 xenografts; time 3, individual mice): 151.536 mm3 and 159.659 mm3 and 162.777 mm3 and 151.443 mm3 and 177.63 mm3 and 154.669 mm3 and 192.079 mm3
Tumor growth of HCC1569 xenografts (HCC1569 xenografts; time 7, individual animals): 138.854 and 145.293 and 143.642 and 108.998 and 199.13 and 137.034 and 160.487
HCC1569 tumor volume (mm3) (HCC1569 xenografts; time 7, individual mice): 138.854 mm3 and 145.293 mm3 and 143.642 mm3 and 108.998 mm3 and 199.13 mm3 and 137.034 mm3 and 160.487 mm3
Tumor growth of HCC1569 xenografts (HCC1569 xenografts; time 9, individual animals): 174.796 and 137.503 and 143.242 and 176.878 and 226.134 and 163.467 and 188.183
HCC1569 tumor volume (mm3) (HCC1569 xenografts; time 9, individual mice): 174.796 mm3 and 137.503 mm3 and 143.242 mm3 and 176.878 mm3 and 226.134 mm3 and 163.467 mm3 and 188.183 mm3
Tumor growth of HCC1569 xenografts (HCC1569 xenografts; time 11, individual animals): 223.015 and 184.936 and 195 and 179.883 and 241.724 and 153.608 and 171.36
HCC1569 tumor volume (mm3) (HCC1569 xenografts; time 11, individual mice): 223.015 mm3 and 184.936 mm3 and 195 mm3 and 179.883 mm3 and 241.724 mm3 and 153.608 mm3 and 171.36 mm3
Tumor growth of HCC1569 xenografts (HCC1569 xenografts; time 14, individual animals): 204.003 and 261.558 and 183.38 and 118.879 and 239.252 and 185.171 and 204.752
HCC1569 tumor volume (mm3) (HCC1569 xenografts; time 14, individual mice): 204.003 mm3 and 261.558 mm3 and 183.38 mm3 and 118.879 mm3 and 239.252 mm3 and 185.171 mm3 and 204.752 mm3
Tumor growth of HCC1569 xenografts (HCC1569 xenografts; time 16, individual animals): 195.461 and 216.259 and 164.879 and 153.977 and 196.654 and 193.17 and 190.906
HCC1569 tumor volume (mm3) (HCC1569 xenografts; time 16, individual mice): 195.461 mm3 and 216.259 mm3 and 164.879 mm3 and 153.977 mm3 and 196.654 mm3 and 193.17 mm3 and 190.906 mm3
Tumor growth of HCC1569 xenografts (HCC1569 xenografts; time 18, individual animals): 221.924 and 212.425 and 129.02 and 208.213 and 166.677 and 229.196 and 227.014
HCC1569 tumor volume (mm3) (HCC1569 xenografts; time 18, individual mice): 221.924 mm3 and 212.425 mm3 and 129.02 mm3 and 208.213 mm3 and 166.677 mm3 and 229.196 mm3 and 227.014 mm3
Tumor growth of HCC1569 xenografts (HCC1569 xenografts; time 21, individual animals): 185.067 and 156.685 and 149.724 and 161.993 and 145.441 and 216.395 and 247.024
HCC1569 tumor volume (mm3) (HCC1569 xenografts; time 21, individual mice): 185.067 mm3 and 156.685 mm3 and 149.724 mm3 and 161.993 mm3 and 145.441 mm3 and 216.395 mm3 and 247.024 mm3
Tumor growth of HCC1569 xenografts (HCC1569 xenografts; time 23, individual animals): 177.467 and 131.768 and 165.163 and 189.467 and 130.853 and 205.401 and 303.013
HCC1569 tumor volume (mm3) (HCC1569 xenografts; time 23, individual mice): 177.467 mm3 and 131.768 mm3 and 165.163 mm3 and 189.467 mm3 and 130.853 mm3 and 205.401 mm3 and 303.013 mm3
Tumor growth of OVCAR3 xenografts (OVCAR3 xenografts; time 0, individual animals): 127.251 and 90.8608 and 112.694 and 96.336 and 125.032 and 141.631 and 118.987
Tumor growth of OVCAR3 xenografts (OVCAR3 xenografts; time 3, individual animals): 203.437 and 160.884 and 245.447 and 183.946 and 210.941 and 179.854 and 163.096
Tumor growth of OVCAR3 xenografts (OVCAR3 xenografts; time 7, individual animals): 169.802 and 183.034 and 268.576 and 188.758 and 168.18 and 112.682 and 213.401
Tumor growth of OVCAR3 xenografts (OVCAR3 xenografts; time 9, individual animals): 250.578 and 145.319 and 296.396 and 174.266 and 208.875 and 111.675 and 222.442
Tumor growth of OVCAR3 xenografts (OVCAR3 xenografts; time 11, individual animals): 150.312 and 146.391 and 223.166 and 200.774 and 206.854 and 146.012 and 157.334
Tumor growth of OVCAR3 xenografts (OVCAR3 xenografts; time 14, individual animals): 213.268 and 123.935 and 200.751 and 155.809 and 196.515 and 140.875 and 141.404
Tumor growth of OVCAR3 xenografts (OVCAR3 xenografts; time 16, individual animals): 237.66 and 135.959 and 229.1 and 226.618 and 235.663 and 103.266 and 203.735
Tumor growth of OVCAR3 xenografts (OVCAR3 xenografts; time 18, individual animals): 251.017 and 162.673 and 318.873 and 214.059 and 306.209 and 174.974 and 210.077
Tumor growth of OVCAR3 xenografts (OVCAR3 xenografts; time 21, individual animals): 247.655 and 170.92 and 321.104 and 222.893 and 230.514 and 99.1867 and 166.154
Tumor growth of OVCAR3 xenografts (OVCAR3 xenografts; time 23, individual animals): 217.609 and 142.992 and 287.288 and 218.481 and 211.021 and 149.048 and 110.272
Tumor growth of OVCAR3 xenografts (OVCAR3 xenografts; time 25, individual animals): 172.222 and 104.59 and 228.551 and 206.723 and 216.753 and 107.406 and 123.877
Tumor growth of OVCAR3 xenografts (OVCAR3 xenografts; time 28, individual animals): 184.75 and 98.3676 and 117.318 and 112.167 and 170.273 and 123.013 and 138.241
Tumor growth of OVCAR3 xenografts (OVCAR3 xenografts; time 31, individual animals): 217.819 and 125.965 and 185.385 and 170.168 and 195 and 193.032 and 178.082
Tumor growth of OVCAR3 xenografts (OVCAR3 xenografts; time 35, individual animals): 357.498 and 160.976 and 228.46 and 273.584 and 249.247 and 117.028 and 138.719
Change in body weight (%) HCC1569 ([1]; time 0): 0%
Change in body weight (%) HCC1569 ([1]; time 3): 2.186% and 4.278% and -2.094% and 2.073% and 1.538% and -0.9709% and -1.493%
Change in body weight (%) HCC1569 ([1]; time 7): 3.279% and 3.743% and 1.047% and 5.181% and 1.026% and 0% and 1.99%
Change in body weight (%) HCC1569 ([1]; time 9): 0.5464% and 3.209% and 0.5236% and 3.109% and 2.5641% and 2.427% and 1.99%
Change in body weight (%) HCC1569 ([1]; time 11): 3.279% and 2.6738% and 1.571% and 2.591% and 0.5128% and 1.456% and 3.483%
Change in body weight (%) HCC1569 ([1]; time 14): 7.104% and 10.1604% and 2.6178% and 8.808% and 4.103% and 2.913% and 2.985%
Change in body weight (%) HCC1569 ([1]; time 16): 9.29% and 6.417% and 2.6178% and 5.181% and 3.077% and 4.854% and 4.975%
Change in body weight (%) HCC1569 ([1]; time 18): 8.197% and 8.556% and 3.141% and 6.218% and 3.59% and 6.796% and 0.995%
Change in body weight (%) HCC1569 ([1]; time 21): 12.5683% and 10.6952% and 5.759% and 9.326% and 8.205% and 11.6505% and 10.4478%
Change in body weight (%) HCC1569 ([1]; time 23): 13.1148% and 9.626% and 4.712% and 9.845% and 6.154% and 6.311% and 3.9801%
Change in body weight (%) OVCAR3 ([1]; day 0): 0%
Change in body weight (%) OVCAR3 ([1]; day 3): 1.389% and -3.111% and 1.796% and -4.018% and -0.4608% and -5.195% and 2.427%
Change in body weight (%) OVCAR3 ([1]; day 7): 4.63% and 0.4444% and 0.5988% and -2.232% and -0.9217% and 0% and 3.8835%
Change in body weight (%) OVCAR3 ([1]; day 9): 4.167% and -2.667% and 0% and -0.8929% and -3.226% and -2.1645% and 3.8835%
Change in body weight (%) OVCAR3 ([1]; day 11): 0% (2×) and -3.556% and 1.796% and -1.786% and -3.687% and 7.767%
Change in body weight (%) OVCAR3 ([1]; day 14): 2.778% and -1.333% and 0.5988% and -0.8929% and 0% and 0.8658% and 9.709%
Change in body weight (%) OVCAR3 ([1]; day 16): 3.7037% and -2.667% and -0.5988% and -1.786% and -4.147% and 0.4329% and 7.282%
Change in body weight (%) OVCAR3 ([1]; day 18): 4.63% and -2.222% and 0.5988% and -0.4464% and 1.843% and -1.7316% and 4.854%
Change in body weight (%) OVCAR3 ([1]; day 21): 8.7963% and 1.778% and 1.796% and -0.4464% and 2.765% and 0% and 8.252%

Source: article PMC9046089, “CCNE1 amplification is synthetic lethal with PKMYT1 kinase inhibition” (Nature, 2022)
